“And” between values parts separate entries of the source, which are not always exact repeats. Identical values can stand only once.
Columns and labels:
[1] = system: Zika virus; assay: EC50 is reported via analysis of immunofluorescence staining. The assay has been performed by Icahn School of Medicine at Mount Sinai.; assay type: functional, organism-based, Chlorocebus sabaeus, VeroE6/TMPRSS2; conditions: for EC90: P-gp concentration 2 uM, P-gp inhibitor Elacidar
[2] = system: dengue virus type 2; assay: Functional assay to measure dose dependent changes in antiviral-drug inhibitory efficacy against Dengue virus type 2 New Guinea C in Vero E6 miRFP670 cells (cotreated with P-gp inhibitor, CP100356). Cells are treated with antiviral candidates that are serially diluted, following infection, cells are fixed. EC50 is reported via analysis of fluorescence intensity using high-content imager. The …; assay type: organism-based, Chlorocebus sabaeus, Vero C1008; conditions: for EC90: P-gp concentration 500 nM, P-gp inhibitor CP100356
[3] = system: dengue virus type 2; assay: Functional immunofluorescence assay to measure dose dependent changes in antiviral-drug inhibitory efficacy against Dengue virus type 2 Thailand/16681/84 in Vero E6/TMPRSS2 cells (cotreated with P-gp inhibitor, Elacridar). Cells are treated with antiviral candidates that are serially diluted, following infection, cells are fixed. EC50 is reported via analysis of immunofluorescence staining. The assay has been performed by Icahn School of Medicine at Mount Sinai.; assay type: organism-based, Chlorocebus sabaeus, VeroE6/TMPRSS2; conditions: Dengue virus
[4] = system: Zika virus; assay: Functional CPE-based assay to measure dose dependent changes in antiviral-drug inhibitory efficacy against Zika virus MR766 in Vero E6 miRFP670 cells (cotreated with P-gp inhibitor, CP100356). Cells are treated with antiviral candidates that are serially diluted. EC50 is reported via analysis of MTS assay as a readout of CPE. The assay has been performed by KU Leuven.; assay type: organism-based, Chlorocebus sabaeus, Vero C1008; conditions: Zika virus; for EC90: P-gp concentration 500 nM, P-gp inhibitor CP100356

With `CNC(=O)[C@H](Nc1ccc2c(c1)CNC2)c1cc(Cl)cc2[nH]ncc12` the EC50 ([1]; Zika virus, VeroE6/TMPRSS2) was > 50 µM, the EC90 ([1]; Zika virus, VeroE6/TMPRSS2, Maximum measured 122.029 %, Minimum measured 43.627 %) was > 50 µM and the EC90 ([1]; Zika virus, VeroE6/TMPRSS2, Baseline response 0 %, Hill slope 0.082, Maximum measured 101.866 %, Maximum response 100 %, Minimum measured 51.114 %, R squared 0.025) was > 50 µM. For the same compound, the EC50 ([2]; Dengue virus, Vero C1008) was > 50 µM, the EC90 ([2]; Dengue virus, Vero C1008, Baseline response 0 %, Hill slope 0.363, Maximum measured 102.287 %, Maximum response 100 %, Minimum measured 71.268 %, R squared 0.122) was > 50 µM and the EC50 ([3]; VeroE6/TMPRSS2) was > 50 µM. For the same compound, the EC90 ([3]; VeroE6/TMPRSS2, Maximum measured 241.837 %, Minimum measured 83.65 %, P-gp concentration 2 uM, P-gp inhibitor Elacidar) was > 50 µM, the EC50 ([4]; Vero C1008) was > 50 µM and the EC90 ([4]; Vero C1008, Baseline response 0 %, Hill slope 0.1, Maximum measured 6.056 %, Maximum response 100 %, Minimum measured 1.325 %, R squared 0.024) was > 50 µM.

With `O=C(Nc1ccc2c(c1)CCNCC2)c1cc(Cl)cc2[nH]ncc12` the EC50 ([1]; Zika virus, VeroE6/TMPRSS2) was > 50 µM, the EC90 ([1]; Zika virus, VeroE6/TMPRSS2, Maximum measured 112.155 %, Minimum measured 46.888 %) was > 50 µM and the EC50 ([2]; Dengue virus, Vero C1008) was > 25 µM. The EC90 ([2]; Dengue virus, Vero C1008, Baseline response 0 %, Hill slope -0.681, Maximum measured 107.454 %, Maximum response 100 %, Minimum measured 77.093 %, R squared 0.152) was > 25 µM, the EC50 ([3]; VeroE6/TMPRSS2) was > 50 µM and the EC90 ([3]; VeroE6/TMPRSS2) was > 50 µM. For the same compound, the EC50 ([4]; Vero C1008) was > 50 µM and the EC90 ([4]; Vero C1008, Maximum measured -0.637 %, Minimum measured -2.713 %) was > 50 µM.

`COC(=O)CNC(=O)[C@H](Nc1ccc2c(c1)CNC2)c1cc(Cl)cc(C2CC2)c1` was tested, and the EC90 ([1]; Zika virus, VeroE6/TMPRSS2, Maximum measured 147.006 %, Minimum measured 69.301 %) was > 16.7 µM, the EC90 ([1]; Zika virus, VeroE6/TMPRSS2, Baseline response 0 %, Hill slope -5.229, Maximum measured 154.716 %, Maximum response 100 %, Minimum measured 79.745 %, R squared 0.023) was > 5.56 µM and the EC50 ([1]; veroe6/tmprss2) was > 16.7 µM. The EC50 ([2]; Dengue virus, Vero C1008) was > 50 µM, the EC90 ([2]; Dengue virus, Vero C1008, Maximum measured 109.152 %, Minimum measured 106.626 %) was > 50 µM and the EC50 ([3]; VeroE6/TMPRSS2) was > 50 µM. The EC90 ([3]; VeroE6/TMPRSS2, Maximum measured 158.675 %, Minimum measured 120.715 %, P-gp concentration 2 uM, P-gp inhibitor Elacidar) was > 50 µM, the EC50 ([4]; Vero C1008) was > 50 µM and the EC90 ([4]; Vero C1008, Baseline response 0 %, Hill slope 2.666, Maximum measured 16.971 %, Maximum response 100 %, Minimum measured -1.569 %, R squared 0.882) was > 50 µM.

`O=C(NCc1ccc(F)cc1)[C@H](Nc1ccc2c(c1)CNC2)c1cc(Cl)cc2[nH]ncc12` was tested, and the EC90 ([1]; Baseline response 0 %, EC90 CI (lower) 0.003 uM, EC90 CI (upper) 0.037 uM, Hill slope -0.964, Maximum measured 95.888 %, Maximum response 100 %, Minimum measured 15.187 %, R squared 0.753) was 0.949 µM, the EC90 ([1]; Baseline response 0 %, Hill slope -0.072, Maximum measured 102.654 %, Maximum response 100 %, Minimum measured 56.434 %, R squared 0.024) was > 16.7 µM and the EC50 ([2]; Dengue virus, Vero C1008) was > 50 µM. The EC90 ([2]; Dengue virus, Vero C1008, Maximum measured 108.299 %, Minimum measured 100.399 %) was > 50 µM, the EC50 ([3]; VeroE6/TMPRSS2) was > 50 µM and the EC90 ([3]; VeroE6/TMPRSS2, Maximum measured 150.332 %, Minimum measured 95.286 %, P-gp concentration 2 uM, P-gp inhibitor Elacidar) was > 50 µM. For the same compound, the EC50 ([4]; Vero C1008) was > 50 µM and the EC90 ([4]; Vero C1008, Maximum measured 1.197 %, Minimum measured -8.607 %) was > 50 µM.

In the case of `O=C(Nc1ccc2c(c1)CNC2)c1cc(C(F)(F)F)cc2[nH]ccc12`, the EC50 ([1]; Zika virus, VeroE6/TMPRSS2) is reported as > 50 µM, the EC90 ([1]; Zika virus, VeroE6/TMPRSS2, Maximum measured 116.047 %, Minimum measured 72.993 %) is reported as > 50 µM and the EC50 ([2]; Dengue virus, Vero C1008) is reported as > 50 µM. The EC90 ([2]; Dengue virus, Vero C1008, Baseline response 0 %, Hill slope -0.556, Maximum measured 107.588 %, Maximum response 100 %, Minimum measured 39.301 %, R squared 0.196) was > 50 µM, the EC50 ([3]; VeroE6/TMPRSS2) was > 16.7 µM and the EC90 ([3]; VeroE6/TMPRSS2, Baseline response 0 %, Hill slope -15.878, Maximum measured 193.651 %, Maximum response 148.635 %, Minimum measured 63.423 %, P-gp concentration 2 uM, R squared 0.446, P-gp inhibitor Elacidar) was > 16.7 µM. The EC50 ([4]; Vero C1008) was 45.6 µM and the EC90 ([4]; Vero C1008, Baseline response 0 %, Hill slope 3.148, Maximum measured 56.87 %, Maximum response 100 %, Minimum measured -2.102 %, R squared 0.945) was > 50 µM.

With `O=C(Nc1cc(Cl)cc(C(=O)Nc2ccc(-n3nn[nH]c3=O)cc2)c1)OCc1ccccc1` the EC50 ([1]; Zika virus, VeroE6/TMPRSS2) was 49.1 µM, the EC90 ([1]; Zika virus, VeroE6/TMPRSS2, Baseline response 0 %, Hill slope -16.502, Maximum measured 156.276 %, Maximum response 100 %, Minimum measured 42.402 %, R squared 0.326) was > 50 µM and the EC90 ([2]; Baseline response 0 %, EC90 CI (lower) 3.172 uM, EC90 CI (upper) 10.269 uM, Hill slope -8.96, Maximum measured 107.351 %, Maximum response 100 %, Minimum measured 0.837 %, R squared 0.832) was 9.32 µM. The EC90 ([2]; Baseline response 0 %, Hill slope -35.644, Maximum measured 130.696 %, Maximum response 100 %, Minimum measured 29.339 %, R squared 0.657) was > 50 µM, the EC50 ([2]; vero c1008) was 7.29 µM and 48.8 µM and the EC50 ([3]; VeroE6/TMPRSS2) was 11.4 µM. For the same compound, the EC90 ([3]; VeroE6/TMPRSS2, Baseline response 0 %, Hill slope -0.45, Maximum measured 123.141 %, Maximum response 100 %, Minimum measured 41.064 %, P-gp concentration 2 uM, R squared 0.456, P-gp inhibitor Elacidar) was > 16.7 µM, the EC50 ([4]; Vero C1008) was > 50 µM and the EC90 ([4]; Vero C1008, Baseline response 0 %, Hill slope 1.628, Maximum measured 15.335 %, Maximum response 100 %, Minimum measured -0.05 %, R squared 0.878) was > 50 µM.

For `O=C(NC1CCOCC1)[C@H](Nc1ccc2c(c1)CNC2)c1cc(Cl)cc(C2CC2)c1`, the EC90 ([1]; Baseline response 0 %, Hill slope -0.296, Maximum measured 102.901 %, Maximum response 100 %, Minimum measured 72.878 %, R squared 0.169) was > 16.7 µM, the EC90 ([1]; Baseline response 0 %, Hill slope -0.385, Maximum measured 147.213 %, Maximum response 4776.39 %, Minimum measured 30.718 %, R squared 0.741) was < 0.023 µM and the EC50 ([2]; Dengue virus, Vero C1008) was 36 µM. For the same compound, the EC90 ([2]; Dengue virus, Vero C1008, Baseline response 0 %, Hill slope -0.982, Maximum measured 114.445 %, Maximum response 100 %, Minimum measured 34.266 %, R squared 0.594) was > 50 µM, the EC50 ([3]; VeroE6/TMPRSS2) was > 5.56 µM and the EC90 ([3]; VeroE6/TMPRSS2, Maximum measured 137.73 %, Minimum measured 84.756 %, P-gp concentration 2 uM, P-gp inhibitor Elacidar) was > 5.56 µM. For the same compound, the EC50 ([4]; Vero C1008) was 3.19 µM and the EC90 ([4]; Vero C1008, Baseline response 0 %, EC90 CI (lower) 0.059 uM, EC90 CI (upper) 333.672 uM, Hill slope 6.678, Maximum measured 170.178 %, Maximum response 100 %, Minimum measured 3.055 %, R squared 0.499) was 4.44 µM.

In the case of `O=C(NC[C@H]1CCCO1)[C@H](Nc1ccc2c(c1)CNC2)c1cc(Cl)cc2[nH]ncc12`, the EC50 ([1]; Zika virus, VeroE6/TMPRSS2) is reported as 0.309 µM, the EC90 ([1]; Zika virus, VeroE6/TMPRSS2, Baseline response 0 %, Hill slope -0.364, Maximum measured 91.96 %, Maximum response 100 %, Minimum measured 21.463 %, R squared 0.587) is reported as > 16.7 µM and the EC50 ([2]; Dengue virus, Vero C1008) is reported as > 6.25 µM. For the same compound, the EC90 ([2]; Dengue virus, Vero C1008, Maximum measured 107.029 %, Minimum measured 98.467 %) was > 6.25 µM, the EC50 ([3]; VeroE6/TMPRSS2) was > 16.7 µM and the EC90 ([3]; VeroE6/TMPRSS2, Maximum measured 188.503 %, Minimum measured 79.522 %, P-gp concentration 2 uM, P-gp inhibitor Elacidar) was > 16.7 µM. The EC50 ([4]; Vero C1008) was > 50 µM and the EC90 ([4]; Vero C1008, Baseline response 0 %, Hill slope 0.096, Maximum measured 37.493 %, Maximum response 100 %, Minimum measured 16.803 %, R squared 0.054) was > 50 µM.

`Cn1cc(CCc2nc3c(C(=O)Nc4ccc5c(c4)CNC5)cc(Cl)cc3[nH]2)cn1` was tested, and the EC50 ([1]; Zika virus, VeroE6/TMPRSS2) was > 16.7 µM, the EC90 ([1]; Zika virus, VeroE6/TMPRSS2, Maximum measured 69.995 %, Minimum measured 22.891 %) was > 16.7 µM and the EC50 ([2]; Dengue virus, Vero C1008) was > 50 µM. The EC90 ([2]; Dengue virus, Vero C1008, Maximum measured 132.966 %, Minimum measured 89.816 %) was > 50 µM, the EC50 ([3]; VeroE6/TMPRSS2) was > 16.7 µM and the EC90 ([3]; VeroE6/TMPRSS2, Baseline response 0 %, Hill slope -0.053, Maximum measured 79.122 %, Maximum response 100 %, Minimum measured 42.376 %, P-gp concentration 2 uM, R squared 0.043, P-gp inhibitor Elacidar) was > 16.7 µM. The EC50 ([4]; Vero C1008) was > 50 µM and the EC90 ([4]; Vero C1008, Baseline response 0 %, Hill slope 0.081, Maximum measured 22.254 %, Maximum response 100 %, Minimum measured 2.34 %, R squared 0.041) was > 50 µM.

Reference: ChEMBL document CHEMBL5661943, “ASAP - In vitro antiviral effect” (2024)
